{"source": "patent US20030135033A1", "about": "“Compounds and methods for the identification and/ or validation of a target” (priority 2002, published 2003)", "type_in_all_cases": "cell-based, rat", "key": {"PTEN mRNA [1]": {"test_system": "PTEN mRNA", "experiment": "Immunoblot of PTEN and phosphorylated Akt after GeneBloc transfection of 3Y1 cells", "method": "A total of three different antisense oligonucleotides, also referred to as geneblocs herein, namely PTEN 48, PTEN 57 and PTEN 53 were transfected into rat-embryo fibroblast cell line together with a negative control comprising a randomised sequence (also referred to herein as GBC). More particularly, 3Y1 cells on 10 cm plates were transfected with 15 or 30 nM of the three different PTEN specific Geneblocs 48, 57 and 53 and with GBC. After 48 h cells were harvested and the cell extracts were analyzed by immunoblotting for the relative protein amounts of p110, Akt, phosphorylated Akt (P*-Akt) and PTEN as indicated on the right. […] The concentration dependency of the antisense oligonucleotides can be particularly well seen from the use of PTEN 57 and PTEN 53 and was confirmed by further experiments. The most powerful antisense oligonucleotide among said three antisense oligonucleotides was PTEN 53. P110 was used as a marker to reflect the loading of each of the lanes.\nIn the corresponding experiment PTEN 53 was used as the antisense oligonucleotide and a total of four mismatches were introduced to the particular sequence with the total length of PTEN 57 being 23 nucleotides. Again, GBC was used as a negative control. The sequence of the mismatch oligonucleotide is BucucauuTsTssCssTspl sTssTssGssTssGsscucacgaB (SEQ ID No. 33) with B representing an inverted abasic nucleotide. In addition an antisense oligonucleotide was prepared specific for the mRNA of luciferase inhibiting luciferase expression in cells engineered to express the recombinant firefly gene. The respective lane on the Western blot is designated as “luc”. The same experiment was carried out using either 30 nM or 60 nM antisense oligonucleotide. As mentioned in connection with FIG. 3, P110 serves as an internal loading standard.\nTransfections were carried out in 96 well or 10-cm plates (at 30% to 50% confluency) by using various cationic lipids such as Oligofectamine, Lipofectamine (Life Technologies), NC388 (Ribozyme Pharmaceuticals, Inc., Boulder, CO), or FuGene 6 (Roche) according to the manufacturer's instructions. […] molecules, including third generation antisense molecules, were transfected by adding pre-formed 5× concentrated complex of GeneBloc and lipid in serum-free medium to cells in complete medium. The total transfection volume was 100 μl for cells plated in 96 wells and 10 ml for cells in 10 cm plates. The final lipid concentration was 0.8 to 1.2 μg/ml depending on cell density; the GeneBloc concentration is indicated in each experiment.\nCells were washed twice with cold phosphate-buffered saline and lysed at 4° C. in lysis buffer containing 20 mM Tris (pH 7.5), 137 mM NaCl, 15% (vol/vol) glycerol, 1% (vol/vol) Nonidet P-40 (NP-40), 2 mM phenylmethylsulfonyl fluoride, […], 20 mM leupeptin, 2 mM benzamidine, 1 mM sodium vanadate, 25 mM […]-glycerol phosphate, 50 mM NaF and 10 mM NaPPi. Lysates were cleared by centrifugation at 14,000× g for 5 minutes and aliquots of the lysates were analyzed for protein expression by Western-blotting: Samples were separated by SDS-PAGE and transferred to nitrocellulose-filters (Schleicher & Schuell). Filters were blocked in TBST buffer (10 mM Tris-HCl (pH 7.5), 150 mM NaCl, 0.05% (vol/vol) Tween 20, 0.5% (wt/vol) sodium azide) containing 5% (wt/vol) dried milk. The respective antibodies were added in TBST at appropriate dilutions. Bound antibody was detected using anti-mouse- or anti-rabbit-conjugated horse radish peroxidase (Transduction Laboratories, BD) in TBST, washed, and developed using the SuperSignal West Dura (Pierce) or ECL (Amersham) chemoluminescence substrates. […]\nTo further ensure that Akt phosphorylation is not caused by an artefact or by stress imposed through the transfection conditions we tested various negative control third generation antisense molecules (negative control GeneBlocs). […]"}, "3Y1 cells": {"test_system": "3Y1 cells", "experiment": "Rate of DNA synthesis by incorporation of bromodeoxyuridine", "conditions": "synchronized in low serum, released by serum stimulation", "method": "3Y1 cells plated in 96-wells at 1600 cells per well were transfected in triplicate samples with GeneBloc molecules. After ca. 30 h the cells were starved in DMEM containing 10 mM HEPES (pH 7.2) under continuous GeneBloc treatment. The cells were released into the cell cycle at various time points by addition of 10% serum. Control cells were incubated with 5 μg/ml aphidicolin for 18 h. After pulse-labeling with 10 μM 5-bromo-2′-deoxyururidine (BrdU) for the last 2 h the cells were fixed and permeabilized. The relative amount of BrdU incorporated into each sample was determined by using the Cell Proliferation ELISA, BrdU (colorimetric) (Roche) according to the manufacturer's instructions. Incorporated BrdU was detected by measuring the absorbance at 405 nm and 490 nM using the Spectra Max 190 (Molecular Devices).\n(§1) 3Y1 cells were used, because these untransformed rat fibroblasts are very sensitive to transfection conditons and are prone to arrest or even undergo apoptosis. Subconfluent 3Y1 cells in 96 wells were treated with PTEN GeneBloc 48, GeneBloc 53 or GBC as a control. On day 2 the cells were synchronized in low serum. During days 3 and 4 the cells were released into the cell cycle by serum stimulation at various time points. BrdU was added for the last 2 h of incubation. Untreated cells and cells that were treated with Aphidicolin for 24 h were used as controls. RNA knock down was analyzed in parallel samples. The rate of synthesis was determined via the amount of incorporated BrdU."}, "PTEN mRNA [2]": {"test_system": "PTEN mRNA", "experiment": "Relative PTEN RNA level by Taqman analysis", "conditions": "3Y1 cells, parallel samples of BrdU experiment", "method": "The RNA of cells transfected in 96-wells was isolated and purified using the Invisorb RNA HTS 96 kit (InVitek GmbH, Berlin). Inhibition of PTEN mRNA expression was detected by real time RT-PCR (Taqman) analysis using PTEN 5′ primer […] (SEQ ID No. 47), PTEN 3′ primer […] (SEQ ID No. 48) and the Taqman probe Fam-[…]-Tamra (SEQ ID No. 34). The reaction was carried out in 50 μl and assayed on the ABI PRISM 7700 Sequence detector (Applied Biosystems) according to the manufacturer's instructions under the following conditions: 48° C. for 30 min, 95° C. for 10 min, followed by 40 cycles of 15 sec at 95° C. and 1 min at 60° C.\nas §1"}, "[3]": {"conditions": "30 nM or 60 nM, PTEN 53 versus negative control GeneBlocs"}, "[4]": {"conditions": "3Y1 cells, 15 or 30 nM GeneBloc, 48 h"}, "[5]": {"conditions": "3Y1 cells, 15 or 30 nM GeneBloc, 48 h, listed as PTEN GeneBloc 53"}}, "data": [{"substance": "ucuccuuTTGTTTCTGcuaacga (UCUCCUUTTGTTTCTGCUAACGA; chemistry not fully specified) [PTEN 53, third generation antisense oligonucleotide (GeneBloc) against PTEN]", "values": [{"measurement": "PTEN protein / PTEN mRNA degradation (immunoblot)", "setting": "PTEN mRNA [1]; [3]", "value": "inhibited PTEN expression"}, {"measurement": "phosphorylated Akt (P*-Akt) (immunoblot)", "setting": "PTEN mRNA [1]; [3]", "value": "resulted in the phosphorylation of Akt"}, {"measurement": "phosphorylated Akt (P*-Akt) (immunoblot)", "setting": "PTEN mRNA [1]; 30 nM or 60 nM, PTEN 53 versus negative control GeneBlocs, listed as PTEN GeneBloc 53", "value": "caused an increase in Akt phosphorylation"}, {"measurement": "PTEN protein (immunoblot)", "setting": "PTEN mRNA [1]; [4]", "value": "no longer present"}, {"measurement": "phosphorylated Akt (P*-Akt) (immunoblot)", "setting": "PTEN mRNA [1]; [4]", "value": "phosphorylated Akt could be detected"}, {"measurement": "PTEN protein (immunoblot)", "setting": "PTEN mRNA [1]; [5]", "value": "most efficient knock down in PTEN expression"}, {"measurement": "phosphorylated Akt (P*-Akt) (immunoblot)", "setting": "PTEN mRNA [1]; [5]", "value": "strongest increase in Akt phosphorylation"}, {"measurement": "ranking among the three PTEN antisense oligonucleotides", "setting": "PTEN mRNA [1]; 3Y1 cells, 15 or 30 nM, 48 h", "value": "most powerful"}, {"measurement": "rate of DNA synthesis (incorporated BrdU)", "setting": "3Y1 cells", "value": "strong increase in DNA synthesis after 18 h"}, {"measurement": "PTEN mRNA level (PTEN/actin RNA)", "setting": "PTEN mRNA [2]", "value": "remained downregulated"}]}]}
